Experimental data from patent US20220411471A1, “CELL-PERMEABLE CYCLIC PEPTIDES AND USES THEREOF” (Unnatural Products Inc., priority 2019, published 2022).
Non-standard residues stand in square brackets, D forms with d. Residues, ends and D or L forms follow the SMILES beside them. ξ: configuration not given here. NEtPhe(4-F) = CCN[C@@H](Cc1ccc(F)cc1)C(=O)O; Ala(4-thiazolyl) = N[C@@H](Cc1cscn1)C(=O)O; NMePhe(4-F) = CN[C@@H](Cc1ccc(F)cc1)C(=O)O; Phe(4-Cl) = N[C@@H](Cc1ccc(Cl)cc1)C(=O)O; Phe(4-F) = N[C@@H](Cc1ccc(F)cc1)C(=O)O; NMeThr(3ξ) = CN[C@H](C(=O)O)C(C)O; NMeF = CN[C@@H](Cc1ccccc1)C(=O)O; Tle = CC(C)(C)[C@H](N)C(=O)O; NMeV = CN[C@H](C(=O)O)C(C)C; Pip = O=C(O)[C@@H]1CCCCN1; hSer = N[C@@H](CCO)C(=O)O; NMeA = CN[C@@H](C)C(=O)O; dNMeA = CN[C@H](C)C(=O)O; Nme = COCCNCC(=O)O

Experiments:
Human MDM2 (HDM2) 1-116 = molecular target: T1, Human MDM2 (HDM2) 1-116 (Homo sapiens, UniProt Q00987); test: Fluorescence polarization assay 2, MDM2 (Table 4); format: binding; conditions: Table 4; fluorescence polarization; read-out: MDM2 IC50
T1 construct: Human MDM2 (HDM2) 1-116
T1 sequence (Q00987 1-116): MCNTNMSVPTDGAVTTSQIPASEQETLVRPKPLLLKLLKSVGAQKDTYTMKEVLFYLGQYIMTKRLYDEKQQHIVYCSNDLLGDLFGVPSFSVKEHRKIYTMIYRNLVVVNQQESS
Procedure: Compounds dissolved in DMSO were pin transferred (˜100-200 nL) to the 384 well plate containing the MDM2/p53 solution. After incubation for 60 minutes, the fluorescence polarization was read on a Molecular Devices SpectraMax plate reader equipped with a Fluorescein FP cartridge. In addition to probe alone (positive control) and probe/MDM2 (negative control), a titration of linear p53(18-26) was included on every plate as an additional control. IC50 values were fit using either Prism or Collaborative Drug Discovery.

Human MDM4 (HDM4) 1-114 = molecular target: T2, Human MDM4 (HDM4) 1-114 (Homo sapiens, UniProt O15151); test: Fluorescence polarization assay 2, MDM4 (Table 4); format: binding; conditions: Table 4; fluorescence polarization; read-out: MDM4 IC50
T2 construct: Human MDM4 (HDM4) 1-114
T2 sequence (O15151 1-114): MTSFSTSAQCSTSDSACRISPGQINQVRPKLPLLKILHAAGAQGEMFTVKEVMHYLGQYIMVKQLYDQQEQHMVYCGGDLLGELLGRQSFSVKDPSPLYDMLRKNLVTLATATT
Procedure: Compounds dissolved in DMSO were pin transferred (˜100-200 nL) to the 384 well plate containing the MDM4/p53 solution. After incubation for 60 minutes, the fluorescence polarization was read on a Molecular Devices SpectraMax plate reader equipped with a Fluorescein FP cartridge. In addition to probe alone (positive control) and probe/MDM4 (negative control), a titration of linear p53(18-26) was included on every plate as an additional control. IC50 values were fit using either Prism or Collaborative Drug Discovery.

[1] = Pharmacokinetic parameters of Compound 35, intravenous, mice; format: in vivo; conditions: mouse, 1 mg/kg, plasma
Procedure: Mice were treated intravenously with Compound 35 (1 mg/kg) and plasma was collected at various timepoints to determine pharmacokinetic parameters. The change in mean plasma concentration over time is shown in FIG. 5, and all pharmacokinetic parameters obtained are summarized in Table 2: […]

MOLM-13 cells = test: Cellular fluorescence assay (resazurin, 72 hours); format: cell-based
Procedure: MOLM-13 cells were grown in suspension in T75 flasks in RPMI medium with 10% fetal bovine serum (FBS) at 37° C. with 5% CO2. 40 μL of MOLM-13 cells were plated into columns 1-22 of black, clear bottom, 384 well plates at a density of 1,500 cells per well in PRMI with 10% FBS. Columns 23 and 24 were filled with 40 μL of media as a positive control. 100 nL of compounds dissolved in DMSO were pin transferred into columns 3-22 of the 384 well plate. Columns 1 and 2 served as negative control wells. Plates were incubated for 72 hours at 37° C. with 5% CO2. After incubation, the cells were given 10 μL of 2 mM Resazurin in RPMI with 10% FBS and incubated for 3 hours. The fluorescence intensity was read on a Molecular Devices SpectraMax i3x plate reader (Excitation wavelength=535 nm, Emission wavelength=585 nm).

Compound | IC50 (Human MDM2 (HDM2) 1-116) | IC50 (Human MDM4 (HDM4) 1-114) | further results
COCC[C@@H]1NC(=O)[C@H]2CCCN2C(=O)[C@H](Cc2ccccc2)N(C)C(=O)[C@H](Cc2ccc(Cl)cc2)NC(=O)[C@H](C(C)(C)C)NC(=O)[C@H](Cc2ccc(F)cc2)NC(=O)CN(CCOC)C(=O)[C@@H](C)N(C)C(=O)[C@H](Cc2cscn2)NC(=O)[C@H](C)N(C)C1=O [Compound 35, COCC[C@@H]1NC(=O)[C@H]2CCCN2C(=O)[C@H](CC2=CC=CC=C2)N(C)C(=O)[C@H](CC2=CC=C(Cl)C=C2)NC(=O)[C@@H](NC(=O)[C@H](CC2=CC=C(F)C=C2)NC(=O)CN(CCOC)C(=O)[C@@H](C)N(C)C(=O)[C@H](CC2=CSC=N2)NC(=O)[C@H](C)N(C)C1=O)C(C)(C)C] (cyclo([Ala(4-thiazolyl)][dNMeA][Nme][Phe(4-F)][Tle][Phe(4-Cl)][NMeF][dP][hSer](Me)[NMeA])) | 50 to 100 nM | > 150 nM | AUC(0-inf) [1]: 1040 ng·h/mL; AUC(0-t) [1]: 1040 ng·h/mL; Cmax [1]: 3570 ng/mL; MRT inf [1]: 9 min; MRT last [1]: 7.8 min; Tmax [1]: 4.8 min; clearance [1]: 16 mL/min/kg; half-life [1]: 62.4 min; Vd ([1]; read-out: Vss): 0.14 L/kg
COCC[C@@H]1NC(=O)[C@H]2CCCN2C(=O)[C@H](Cc2ccc(F)cc2)N(C)C(=O)[C@H](Cc2ccc(Cl)cc2)NC(=O)[C@H](C(C)O)N(C)C(=O)[C@H](Cc2ccc(F)cc2)NC(=O)CN(CCOC)C(=O)[C@@H](C)N(C)C(=O)[C@H](Cc2cscn2)NC(=O)[C@H](C)N(C)C1=O (some centres unmarked) [Compound 45, COCC[C@@H]1NC(=O)[C@H]2CCCN2C(=O)[C@H](Cc2ccc(F)cc2)N(C)C(=O)[C@H](Cc2ccc(Cl)cc2)NC(=O)[C@H]([C@@@H](C)O)N(C)C(=O)[C@H](Cc2ccc(F)cc2)NC(=O)CN(CCOC)C(=O)[C@@H](C)N(C)C(=O)[C@H](Cc2cscn2)NC(=O)[C@H](C)N(C)C1=O] (cyclo([Ala(4-thiazolyl)][dNMeA][Nme][Phe(4-F)][NMeThr(3ξ)][Phe(4-Cl)][NMePhe(4-F)][dP][hSer](Me)[NMeA])) |  |  | IC50 (MOLM-13 cells): 50 to 100 nM
COCC[C@@H]1NC(=O)[C@H]2CCCN2C(=O)[C@H](Cc2ccc(F)cc2)N(C)C(=O)[C@H](Cc2ccc(Cl)cc2)NC(=O)[C@@H]2CCCN2C(=O)[C@H](Cc2ccc(F)cc2)NC(=O)CN(CCOC)C(=O)[C@@H](C)N(C)C(=O)[C@H](Cc2cscn2)NC(=O)[C@H](C)N(C)C1=O [Compound 47, COCC[C@@H]1NC([C@H]2CCCN2C([C@@H](N(C([C@@H](NC([C@@H]3CCCN3C([C@@H](NC(CN(C([C@H](N(C([C@@H](NC([C@@H](N(C1=O)C)C)=O)Cc4ncsc4)=O)C)C)=O)CCOC)=O)Cc5ccc(F)cc5)=O)=O)Cc6ccc(Cl)cc6)=O)C)Cc7ccc(F)cc7)=O)=O] (cyclo([Ala(4-thiazolyl)][dNMeA][Nme][Phe(4-F)]P[Phe(4-Cl)][NMePhe(4-F)][dP][hSer](Me)[NMeA])) | 25 to 50 nM | 100 to 150 nM | 
COCC[C@@H]1NC(=O)[C@H]2CCCN2C(=O)[C@H](Cc2ccc(F)cc2)N(C)C(=O)[C@H](Cc2ccc(Cl)cc2)NC(=O)[C@@H]2CCCCN2C(=O)[C@H](Cc2ccc(F)cc2)NC(=O)CN(CCOC)C(=O)[C@@H](C)N(C)C(=O)[C@H](Cc2cscn2)NC(=O)[C@H](C)N(C)C1=O [Compound 46, COCC[C@@H]1NC(=O)[C@H]2CCCN2C(=O)[C@H](Cc2ccc(F)cc2)N(C)C(=O)[C@H](Cc2ccc(Cl)cc2)NC(=O)[C@@H]2CCCCN2C(=O)[C@H](Cc2ccc(F)cc2)NC(=O)CN(CCOC)C(=O)[C@@H](C)N(C)C(=O)[C@H](Cc2cscn2)NC(=O)[C@H](C)N(C)C1=O] (cyclo([Ala(4-thiazolyl)][dNMeA][Nme][Phe(4-F)][Pip][Phe(4-Cl)][NMePhe(4-F)][dP][hSer](Me)[NMeA])) | 50 to 100 nM | 100 to 150 nM | 
COCC[C@@H]1NC(=O)[C@H]2CCCN2C(=O)[C@H](Cc2ccccc2)N(C)C(=O)[C@H](Cc2ccc(Cl)cc2)NC(=O)[C@H](C(C)(C)C)NC(=O)[C@H](Cc2ccc(F)cc2)NC(=O)CN(CCOC)C(=O)[C@@H](C)N(C)C(=O)[C@H](Cc2ccc(O)cc2)NC(=O)[C@H](C)N(C)C1=O [Compound 32, [H]Oc1ccc(C[C@@H]2NC(=O)[C@H](C)N(C)C(=O)[C@H](CCOC)NC(=O)[C@H]3CCCN3C(=O)[C@H](Cc3ccccc3)N(C)C(=O)[C@H](Cc3ccc(Cl)cc3)NC(=O)[C@@H](NC(=O)[C@H](Cc3ccc(F)cc3)NC(=O)CN(CCOC)C(=O)[C@@H](C)N(C)C2=O)C(C)(C)C)cc1] (cyclo([NMeA]Y[dNMeA][Nme][Phe(4-F)][Tle][Phe(4-Cl)][NMeF][dP][hSer](Me))) | < 25 nM | > 150 nM | 
CCN1C(=O)[C@H](Cc2ccc(Cl)cc2)NC(=O)[C@H](C(C)(C)C)NC(=O)[C@H](Cc2ccc(F)cc2)NC(=O)CN(CCOC)C(=O)[C@@H](C)N(C)C(=O)[C@H](Cc2cscn2)NC(=O)[C@H](C)N(C)C(=O)[C@H](CCOC)NC(=O)[C@H]2CCCN2C(=O)[C@@H]1Cc1ccc(F)cc1 [Compound 44, CCN1[C@@H](Cc2ccc(F)cc2)C(=O)N2CCC[C@@H]2C(=O)N[C@@H](CCOC)C(=O)N(C)[C@@H](C)C(=O)N[C@@H](Cc2cscn2)C(=O)N(C)[C@H](C)C(=O)N(CCOC)CC(=O)N[C@@H](Cc2ccc(F)cc2)C(=O)N[C@H](C(=O)N[C@@H](Cc2ccc(Cl)cc2)C1=O)C(C)(C)C] (cyclo([Ala(4-thiazolyl)][dNMeA][Nme][Phe(4-F)][Tle][Phe(4-Cl)][NEtPhe(4-F)][dP][hSer](Me)[NMeA])) | 50 to 100 nM | > 150 nM | 
COCC[C@@H]1NC(=O)[C@H]2CCCN2C(=O)[C@H](Cc2ccccc2)N(C)C(=O)[C@H](Cc2ccc(Cl)cc2)NC(=O)[C@H](C)N(C)C(=O)[C@H](Cc2ccc(F)cc2)NC(=O)CN(CCOC)C(=O)[C@@H](C)N(C)C(=O)[C@H](Cc2cscn2)NC(=O)[C@H](C)N(C)C1=O [Compound 40, COCC[C@@H]1NC(=O)[C@H]2CCCN2C(=O)[C@H](CC2=CC=CC=C2)N(C)C(=O)[C@H](CC2=CC=C(Cl)C=C2)NC(=O)[C@H](C)N(C)C(=O)[C@H](CC2=CC=C(F)C=C2)NC(=O)CN(CCOC)C(=O)[C@@H](C)N(C)C(=O)[C@H](CC2=CSC=N2)NC(=O)[C@H](C)N(C)C1=O] (cyclo([Ala(4-thiazolyl)][dNMeA][Nme][Phe(4-F)][NMeA][Phe(4-Cl)][NMeF][dP][hSer](Me)[NMeA])) | 25 to 50 nM | > 150 nM | 
COCC[C@@H]1NC(=O)[C@H]2CCCN2C(=O)[C@H](Cc2ccccc2)N(C)C(=O)[C@H](Cc2ccc(Cl)cc2)NC(=O)[C@H](C)N(C)C(=O)[C@H](Cc2ccc(F)cc2)NC(=O)[C@H](C)N(C)C(=O)[C@@H](C)N(C)C(=O)[C@H](Cc2cscn2)NC(=O)[C@H](C)N(C)C1=O [Compound 34, COCC[C@@H]1NC(=O)[C@H]2CCCN2C(=O)[C@H](CC2=CC=CC=C2)N(C)C(=O)[C@H](CC2=CC=C(Cl)C=C2)NC(=O)[C@H](C)N(C)C(=O)[C@H](CC2=CC=C(F)C=C2)NC(=O)[C@H](C)N(C)C(=O)[C@@H](C)N(C)C(=O)C@H](CC2=CSC=N2)NC(=O)[C@H](C)N(C)C1=O] (cyclo([Ala(4-thiazolyl)][dNMeA][NMeA][Phe(4-F)][NMeA][Phe(4-Cl)][NMeF][dP][hSer](Me)[NMeA])) | 25 to 50 nM | > 150 nM | 
COCC[C@@H]1NC(=O)[C@H]2CCCN2C(=O)[C@H](Cc2ccccc2)N(C)C(=O)[C@H](Cc2ccc(Cl)cc2)NC(=O)[C@H](C(C)C)N(C)C(=O)[C@H](Cc2ccc(F)cc2)NC(=O)CN(CCOC)C(=O)[C@@H](C)N(C)C(=O)[C@H](Cc2cscn2)NC(=O)[C@H](C)N(C)C1=O [Compound 43, COCC[C@@H]1NC(=O)[C@H]2CCCN2C(=O)[C@H](CC2=CC=CC=C2)N(C)C(=O)[C@H](CC2=CC=C(Cl)C=C2)NC(=O)[C@H](C(C)C)N(C)C(=O)[C@H](CC2=CC=C(F)C=C2)NC(=O)CN(CCOC)C(=O)[C@@H](C)N(C)C(=O)[C@H](CC2=CSC=N2)NC(=O)[C@H](C)N(C)C1=O] (cyclo([Ala(4-thiazolyl)][dNMeA][Nme][Phe(4-F)][NMeV][Phe(4-Cl)][NMeF][dP][hSer](Me)[NMeA])) | 25 to 50 nM | 100 to 150 nM | 
